Literature values as cited in publication PMC4906314, “Direct interaction of beta-amyloid with Na,K-ATPase as a putative regulator of the enzyme function” (Scientific Reports, 2016).

Biological target: Na,K-ATPase
Details: at the same conditions; read-out: Kd for complexes of Na,K-ATPase with CTS

**Q.** Which Kd does the source give for `C[C@]12CC[C@H](O)C[C@@]1(O)CC[C@@H]1[C@@H]2CC[C@]2(C)[C@@H](c3ccc(=O)oc3)C[C@H]3O[C@]132` [marinobufagenin] here?
**A.** Its Kd is 1500 nM.
